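Protocol summary: plate cells (96-well), add compound at 5 concentrations, incubate 48 h, interpolate endpoints linearly. Definition used: TGI = concentration required for complete inhibition of growth.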
What was measured:
Assay in all cases: NCI-60 cell line screen, 48 h
EKVX NSCLC = tested on: EKVX NSCLC
HL-60(TB) leukemia = tested on: HL-60(TB) leukemia
NCI-H226 lung = tested on: NCI-H226 lung
SW-620 colon = tested on: SW-620 colon
HOP-92 NSCLC = tested on: HOP-92 NSCLC
SK-MEL-28 melanoma = tested on: SK-MEL-28 melanoma
HCT-15 colon = tested on: HCT-15 colon
NCI-H460 lung = tested on: NCI-H460 lung
SK-OV-3 ovarian = tested on: SK-OV-3 ovarian
UO-31 renal = tested on: UO-31 renal
SK-MEL-2 melanoma = tested on: SK-MEL-2 melanoma
NCI-H522 lung = tested on: NCI-H522 lung
TK-10 renal = tested on: TK-10 renal
M14 melanoma = tested on: M14 melanoma
MDA-MB-231 breast = tested on: MDA-MB-231 breast
RPMI-8226 leukemia = tested on: RPMI-8226 leukemia
786-0 renal = tested on: 786-0 renal
CAKI-1 renal = tested on: CAKI-1 renal
T-47D breast = tested on: T-47D breast
HCC-2998 colon = tested on: HCC-2998 colon
MALME-3M melanoma = tested on: MALME-3M melanoma
NCI-H23 lung = tested on: NCI-H23 lung
OVCAR-5 ovarian = tested on: OVCAR-5 ovarian
MDA-N = tested on: MDA-N
SF-539 CNS = tested on: SF-539 CNS
KM12 colon = tested on: KM12 colon
MCF7 breast = tested on: MCF7 breast
BT-549 breast = tested on: BT-549 breast
OVCAR-8 ovarian = tested on: OVCAR-8 ovarian
NCI/ADR-RES ovarian = tested on: NCI/ADR-RES ovarian
IGROV1 ovarian = tested on: IGROV1 ovarian
A549 NSCLC = tested on: A549 NSCLC
HOP-62 NSCLC = tested on: HOP-62 NSCLC
UACC-257 melanoma = tested on: UACC-257 melanoma
SK-MEL-5 melanoma = tested on: SK-MEL-5 melanoma
HT29 colon = tested on: HT29 colon
OVCAR-3 ovarian = tested on: OVCAR-3 ovarian
UACC-62 melanoma = tested on: UACC-62 melanoma
HS 578T breast = tested on: HS 578T breast
OVCAR-4 ovarian = tested on: OVCAR-4 ovarian
SNB-75 CNS = tested on: SNB-75 CNS
SNB-19 CNS = tested on: SNB-19 CNS
PC-3 prostate = tested on: PC-3 prostate
A498 renal = tested on: A498 renal
HCT-116 colon = tested on: HCT-116 colon
SF-295 CNS = tested on: SF-295 CNS
U251 CNS = tested on: U251 CNS
MDA-MB-435 = tested on: MDA-MB-435
SR leukemia = tested on: SR leukemia
LOX IMVI melanoma = tested on: LOX IMVI melanoma
DU-145 prostate = tested on: DU-145 prostate
ACHN renal = tested on: ACHN renal
RXF 393 renal = tested on: RXF 393 renal
SF-268 CNS = tested on: SF-268 CNS
SN12C renal = tested on: SN12C renal
CCRF-CEM leukemia = tested on: CCRF-CEM leukemia
COLO 205 colon = tested on: COLO 205 colon
MOLT-4 leukemia = tested on: MOLT-4 leukemia
K-562 leukemia = tested on: K-562 leukemia

Cc1cc(O)c2c(c1)C(=O)C(c1c(C)cc3c(c1O)C(=O)C1OC1C3=O)=CC2=O (configuration not stated)
TGI (EKVX NSCLC): 12.5 µM
TGI (HL-60(TB) leukemia): 0.0151 µM
TGI (NCI-H226 lung): 32.8 µM
TGI (SW-620 colon): 7.54 µM
TGI (HOP-92 NSCLC): 2.11 µM
TGI (SK-MEL-28 melanoma): 5.53 µM
TGI (HCT-15 colon): 3.05 µM
TGI (NCI-H460 lung): 25.8 µM
TGI (SK-OV-3 ovarian): 38.7 µM
TGI (UO-31 renal): 3.77 µM
TGI (SK-MEL-2 melanoma): 24.6 µM
TGI (NCI-H522 lung): 1.4 µM
TGI (TK-10 renal): 3.36 µM
TGI (M14 melanoma): 8.12 µM
TGI (MDA-MB-231 breast): 4.14 µM
TGI (RPMI-8226 leukemia): 3.52 µM
TGI (786-0 renal): 4.16 µM
TGI (CAKI-1 renal): 2.11 µM
TGI (T-47D breast): > 100 µM
TGI (HCC-2998 colon): 17.2 µM
TGI (MALME-3M melanoma): 3.96 µM
TGI (NCI-H23 lung): 22.8 µM
TGI (OVCAR-5 ovarian): 13 µM
TGI (MDA-N): 2.75 µM
TGI (SF-539 CNS): 10.2 µM
TGI (KM12 colon): 28.8 µM
TGI (MCF7 breast): 12.1 µM
TGI (BT-549 breast): 6.32 µM
TGI (OVCAR-8 ovarian): 18.2 µM
TGI (NCI/ADR-RES ovarian): > 23.1 µM
TGI (IGROV1 ovarian): 23.9 µM
TGI (A549 NSCLC): 43.1 µM
TGI (HOP-62 NSCLC): 26.3 µM
TGI (UACC-257 melanoma): 11.3 µM
TGI (SK-MEL-5 melanoma): 19.7 µM
TGI (HT29 colon): 11.7 µM
TGI (OVCAR-3 ovarian): 5.87 µM
TGI (UACC-62 melanoma): 4.77 µM
TGI (HS 578T breast): 98.9 µM
TGI (OVCAR-4 ovarian): 11.1 µM
TGI (SNB-75 CNS): 28.1 µM
TGI (SNB-19 CNS): > 50.7 µM
TGI (PC-3 prostate): 25.1 µM
TGI (A498 renal): 14.3 µM
TGI (HCT-116 colon): 3.21 µM
TGI (SF-295 CNS): 32.6 µM
TGI (U251 CNS): 20.6 µM
TGI (MDA-MB-435): 7.71 µM
TGI (SR leukemia): 40.1 µM
TGI (LOX IMVI melanoma): 5.87 µM
TGI (DU-145 prostate): > 47.3 µM
TGI (ACHN renal): 2.36 µM
TGI (RXF 393 renal): 3.11 µM
TGI (SF-268 CNS): 26.2 µM
TGI (SN12C renal): 11.2 µM

Cc1nnc2sc(-c3ccc([N+](=O)[O-])o3)nn12
TGI (EKVX NSCLC): 37.7 µM
TGI (HL-60(TB) leukemia): 8.58 µM
TGI (CCRF-CEM leukemia): > 100 µM
TGI (COLO 205 colon): 27.5 µM
TGI (MOLT-4 leukemia): 13.5 µM
TGI (NCI-H226 lung): 34.5 µM
TGI (SW-620 colon): 23.2 µM
TGI (HOP-92 NSCLC): 35.2 µM
TGI (HCT-15 colon): 18.2 µM
TGI (NCI-H460 lung): 49.4 µM
TGI (SK-OV-3 ovarian): 32.7 µM
TGI (UO-31 renal): 32.6 µM
TGI (SK-MEL-2 melanoma): 24.2 µM
TGI (NCI-H522 lung): 14.3 µM
TGI (TK-10 renal): 28.6 µM
TGI (M14 melanoma): 21.9 µM
TGI (MDA-MB-231 breast): 29.2 µM
TGI (RPMI-8226 leukemia): 34.7 µM
TGI (786-0 renal): 22 µM
TGI (CAKI-1 renal): 22.3 µM
TGI (T-47D breast): 62.7 µM
TGI (HCC-2998 colon): 25 µM
TGI (MALME-3M melanoma): 14.3 µM
TGI (NCI-H23 lung): 34.4 µM
TGI (OVCAR-5 ovarian): 36.7 µM
TGI (MDA-N): 19.4 µM
TGI (SF-539 CNS): 18.2 µM
TGI (KM12 colon): 33.5 µM
TGI (MCF7 breast): 26.5 µM
TGI (BT-549 breast): 22.5 µM
TGI (OVCAR-8 ovarian): 27.5 µM
TGI (NCI/ADR-RES ovarian): 39 µM
TGI (IGROV1 ovarian): 29.1 µM
TGI (A549 NSCLC): > 100 µM
TGI (HOP-62 NSCLC): 28.5 µM
TGI (UACC-257 melanoma): 26.8 µM
TGI (SK-MEL-5 melanoma): 24.4 µM
TGI (HT29 colon): 34.7 µM
TGI (OVCAR-3 ovarian): 25.4 µM
TGI (UACC-62 melanoma): 22.1 µM
TGI (HS 578T breast): > 100 µM
TGI (OVCAR-4 ovarian): 30.7 µM
TGI (SNB-19 CNS): 35.3 µM
TGI (PC-3 prostate): 27.9 µM
TGI (A498 renal): > 100 µM
TGI (HCT-116 colon): 20.7 µM
TGI (SF-295 CNS): 31 µM
TGI (U251 CNS): 27.9 µM
TGI (MDA-MB-435): 17.5 µM
TGI (SR leukemia): 59.6 µM
TGI (LOX IMVI melanoma): 16.1 µM
TGI (DU-145 prostate): 29.8 µM
TGI (ACHN renal): 23.2 µM
TGI (K-562 leukemia): 26.1 µM
TGI (RXF 393 renal): 25.9 µM
TGI (SF-268 CNS): 27 µM
TGI (SN12C renal): 29.5 µM

— PubChem BioAssay (NCI)
